# US20220389058A1, “PEPTIDES AND COMPOSITIONS FOR USE IN COSMETICS AND MEDICINE” (LIPOTRUE, S.L., priority 2019, published 2022)
# Columns and labels:
# Assay type in all cases: cell-based, Human
# IL33 = IL33 expression modulation by RT-qPCR in HDFa cells (Example 7); settings: 0.01 mg/mL, 24 hours
# Method: (§1) A stock solution of the peptide was prepared in water at 1 mg/mL. Working solution was freshly prepared at the specified concentration from stock solution in the corresponding supplemented medium.
# RNA (ribonucleic acid) extraction and RT-qPCR (reverse transcription quantitative polymerase chain reaction) were performed. Briefly, HDFa and HEKa cells were seeded in duplicate (n=2) in 6-well plates at a density of 4×10^5 cells/well and maintained at standard culture conditions (106 Medium supplemented with 1% (v/v) LSGS for HDFa cells; Medium Epilife supplemented with 1% (v/v) EDGS and 1% (v/v) penicillin/streptomycin for HEKa cells; 37° C., 95% room humidity, 5% CO2) for 24 hours. […]
# Cells were finally lysed, and replicates were pooled together for RNA extraction using Qiagen RNeasy Mini kit following manufacturer's instructions. […] (Annealing and extension) (Arya, M., Shergill, I. S., Williamson, M., Gommersall, L., Arya, N., Patel, H. R. (2005) Basic principles of real-time quantitative PCR. Expert Rev. Mol. Diagn.; 5(2):209-19; and Jozefczuk, J. and Adjaye, J. (2011) Quantitative real-time PCR-based analysis of gene expression. Methods Enzymol. 500; 99-109).
# The obtained data was analysed using the ΔΔCt method, which provides the target gene expression values as fold changes in the treated sample compared with an untreated basal sample. […]
# HEKa cells = assay: Expression of genes related to epidermal cell cohesion, RT-qPCR in HEKa (Example 9); settings: 0.01 mg/mL, 24 hours
# Method: as §1
# RNA (ribonucleic acid) extraction and RT-qPCR (reverse transcription quantitative polymerase chain reaction) were performed. Briefly, HEKa cells were seeded in duplicate (n=2) in 6-well plates at a density of 4×10^5 cells/well and maintained at standard culture conditions (Medium Epilife supplemented with 1% (v/v) EDGS and 1% (v/v) penicillin/streptomycin; 37° C., 95% room humidity, 5% CO2) for 24 hours.
# Then, cells were treated with peptide Ac-SEQ ID NO: 1-NH2, Ac-SEQ ID NO: 2-NH2 or Ac-SEQ ID NO: 3-NH2 at the concentration of 0.01 mg/mL for 24 hours. Untreated cells were used as basal or negative control.
# (§2) Cells were finally lysed, and replicates were pooled together for RNA extraction using Qiagen RNeasy Mini kit following manufacturer's instructions. Purified RNAs were used to generate the corresponding cDNAs (complementary deoxyribonucleic acids) by reverse transcription using a commercial kit High capacity cDNA reverse transcription kit (Applied Biosystems) which served as templates for amplification. RT-qPCR was performed with the panel of appropriate TaqMan assay probes for genes shown in table 1 (plus GAPDH—Glyceraldehyde 3-phosphate dehydrogenase—that was used as housekeeping gene) and 2×gene expression Master Mix using StepOne plus Real-Time PCR instrument. Amplification included 40 cycles of: 15 seconds at 95° C. (denaturation) and 1 minute at 60° C. (Annealing and extension) (Arya, M., Shergill, I. S., Williamson, M., Gommersall, L., Arya, N., Patel, H. R. (2005) Basic principles of real-time quantitative PCR. Expert Rev. Mol. Diagn.; 5(2):209-19; and Jozefczuk, J. and Adjaye, J. (2011) Quantitative real-time PCR-based analysis of gene expression. Methods Enzymol. 500; 99-109).
# (§3) The obtained data was analysed using the ΔΔCt method, which provides the target gene expression values as fold changes in the treated sample compared with an untreated basal sample. Both samples were normalized with the relative expression of a housekeeping gene GAPDH (Glyceraldehyde 3-phosphate dehydrogenase).
# HDFa cells = assay: Expression of genes related with collagen production and extracellular matrix, RT-qPCR in HDFa (Example 10); settings: 0.01 mg/mL
# Method: as §1
# RNA (ribonucleic acid) extraction and RT-qPCR (reverse transcription quantitative polymerase chain reaction) were performed. Briefly, HDFa cells were seeded in duplicate (n=2) in 6-well plates at a density of 4×10^5 cells/well and maintained at standard culture conditions (106 Medium supplemented with 1% (v/v) LSGS; 37° C., 95% room humidity, 5% CO2) for 24 hours. Then, cells were treated with peptide Ac-SEQ ID NO: 1-NH2 at the concentration of 0.01 mg/mL for 24 and 48 hours. Untreated cells were used as basal or negative control.
# as §2, with “table 5” for “table 1”
# as §3
substance,measurement,setting,value
Ac-Arg-Arg-Gln-Met-Arg-Glu-NH2 (Ac-RRQMRE-NH2) [Ac-SEQ ID NO: 1-NH2],"IL33 expression, fold change treated cells with regard to basal control",IL33,−1.22 fold change
same,CDSN Fold change between treated cells and basal control,HEKa cells,1.46 Fold change
same,CLDN1 Fold change between treated cells and basal control,HEKa cells,1.57 Fold change
same,CLDN4 Fold change between treated cells and basal control,HEKa cells,2.64 Fold change
same,DSC2 Fold change between treated cells and basal control,HEKa cells,1.23 Fold change
same,DSP Fold change between treated cells and basal control,HEKa cells,1.28 Fold change
same,JUP Fold change between treated cells and basal control,HEKa cells,1.42 Fold change
same,OCLN Fold change between treated cells and basal control,HEKa cells,1.98 Fold change
same,PCDH1 Fold change between treated cells and basal control,HEKa cells,2.41 Fold change
same,PKP2 Fold change between treated cells and basal control,HEKa cells,1.72 Fold change
same,PPL Fold change between treated cells and basal control,HEKa cells,1.54 Fold change
same,TJP1 Fold change between treated cells and basal control,HEKa cells,1.25 Fold change
same,COL3A1 Fold change between treated cells and basal control,HDFa cells; 24 hours,1.32 Fold change
same,LAMA1 Fold change between treated cells and basal control,HDFa cells; 24 hours,1.16 Fold change
same,TIMP2 Fold change between treated cells and basal control,HDFa cells; 24 hours,1.35 Fold change
same,MMP1 Fold change between treated cells and basal control,HDFa cells; 48 hours,−1.30 Fold change
same,MMP3 Fold change between treated cells and basal control,HDFa cells; 48 hours,−1.69 Fold change
